One data set deals with Huntington's Disease. Put plainly: Case history 12, Sibutramine Patient No. 113. It counts as in vivo, human.
A further data set has as its system Cerebral Palsy. The experiment in a line: Case history 26. It counts as in vivo, human. Conditions: sibutramine 15 mg once a day; person two. An excerpt:
26. The Symptoms Due to Cerebral Palsy
person two had suffered from Cerebral Palsy since birth. Their whole life they had little control of their right arm and hand, and they could not keep their arm straight and down by their side except for short periods of time and using the utmost concentration to do so. Most often they kept their arm in an upright position with their hand near or above their shoulder and their elbow bent. They had no practical use from the arm other than to hold something against their chest. Their hand was also rigid and kept in a loose fist configuration. Fine motor movements of the fingers were impossible for them. […] They had gained control of the right arm and their hand. They are able to hold their hand down by their side for longer periods of time and less concentration required to do so. For the first time in their life they were able to make controlled movements and raise their arm and hand above their head.

Data set [1] has as its system Severe ADHD Refractory to All Other Medications With Executive (Frontal Lobe) Problems. An excerpt:
A person was seen first for a life-long history of severe hyperactivity, distractibility, disorganization, poor memory of studied material, very poor concentration, and school failure despite a high IQ. There was no known history of head injury, other neurological disease, nor metabolic disease.

Data set [2] relates to Severe Post-Traumatic Stress Reaction. The protocol:
Finally, this patient was taken off of fluoxetine 20 mg when sibutramine treatment was initiated.

Setting [3] is: sibutramine 15 mg three times a day.

Take `CC(C)CC(N(C)C)C1(c2ccc(Cl)cc2)CCC1.Cl` (stereo not shown) [sibutramine, N,N-dimethyl-1-[1-(4-chlorophenyl)cyclobutyl]-3-methylbutylamine hydrochloride]: the “ataxic gait with continued treatment” value in the data set on Huntington's Disease (gradually, continued sibutramine) is on record as “improvements in their ataxic gait”. Besides, in the data set with Huntington's Disease (sibutramine 5 mg), the “time to relief after the first capsule” value was not above 20 min. Further, the “cognitive, emotional, behavioral problems and ataxic gait” value in the data set on Huntington's Disease (sibutramine 5 mg three times a day, first capsule, person) is “complete relief of the cognitive, emotional, and behavioral problems but not with the ataxic gait”. For the same molecule, the “symptoms due to Cerebral Palsy, control of right arm and hand” value in the data set with Cerebral Palsy is listed as “their symptoms due to Cerebral Palsy were relieved”. Besides, in data set [1] (rapid catabolism), the “maximum duration of a single dose effect” value lay in the range of 4 to 5 h. For the same molecule, in data set [1] (setting [3]), the “ability to plan and execute (executive function)” value is “marked improvement in their ability to form appropriate, organized plans and execute them promptly without procrastination or distraction”; the complaints entry is given as “being “too calm” with a loss of the exciting high-risk behavior of the past”. Moreover, the “calm, concentration, retention of information” value in data set [1] (sibutramine 15 mg three times a day, person) is “the first medication to calm them and permit careful, quiet concentration and retention of information”. In data set [2] (human, in vivo), the depression result was “became severely depressed despite the relief from PTSD”. For the same molecule, in data set [2] (less than 1 mg once a day), the “PTSD symptoms and sedation at lower dosage” value was “provided relief again from their PTSD symptoms but without the sedation”. Also, in data set [2] (one-half of the smallest capsule (5 mg), deficiency in P-450 cytochrome system enzymes), the side effects entry is “produced drowsiness, sugar craving, and weight gain”. For the same molecule, the “PTSD reaction to thunder” value in data set [2] (sibutramine 10 mg in the morning, person) is “completely oblivious of their former psychotic fear of thunder”. Also, in data set [2] (stopped after one and a half months), the “symptoms after sibutramine was stopped” value is “rapid return of the fear of thunder, sound and light sensitivity, exaggerated startle reflex, headaches, and nightmares of life and death situations”.

(Values after US6696495B2, “Treatment of disorders secondary to organic impairments” (Snowden Pharmaceuticals, LLC, priority 1998, dated 2004).)
